According to PubChem BioAssay (NCI):
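Tested at 5 concentrations; 48 h exposure; 96-well plates; endpoints linearly interpolated, else capped at highest concentration. Definition used: TGI = concentration required for complete inhibition of growth.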

Experiments:
Test in all cases: NCI-60 cell line screen, 48 h
RXF 393 renal = system: RXF 393 renal
HCC-2998 colon = system: HCC-2998 colon
A498 renal = system: A498 renal
T-47D breast = system: T-47D breast
EKVX NSCLC = system: EKVX NSCLC
HL-60(TB) leukemia = system: HL-60(TB) leukemia
UACC-62 melanoma = system: UACC-62 melanoma
MDA-MB-435 = system: MDA-MB-435
TK-10 renal = system: TK-10 renal
SNB-19 CNS = system: SNB-19 CNS
COLO 205 colon = system: COLO 205 colon
HT29 colon = system: HT29 colon
SK-MEL-5 melanoma = system: SK-MEL-5 melanoma
KM12 colon = system: KM12 colon
SF-539 CNS = system: SF-539 CNS
A549 NSCLC = system: A549 NSCLC
SK-MEL-2 melanoma = system: SK-MEL-2 melanoma
ACHN renal = system: ACHN renal
CCRF-CEM leukemia = system: CCRF-CEM leukemia
SW-620 colon = system: SW-620 colon
CAKI-1 renal = system: CAKI-1 renal
NCI-H226 lung = system: NCI-H226 lung
MDA-N = system: MDA-N
MOLT-4 leukemia = system: MOLT-4 leukemia
786-0 renal = system: 786-0 renal
HCT-116 colon = system: HCT-116 colon
MALME-3M melanoma = system: MALME-3M melanoma
IGROV1 ovarian = system: IGROV1 ovarian
HOP-62 NSCLC = system: HOP-62 NSCLC
SNB-75 CNS = system: SNB-75 CNS
LOX IMVI melanoma = system: LOX IMVI melanoma
HCT-15 colon = system: HCT-15 colon
HOP-92 NSCLC = system: HOP-92 NSCLC
SF-268 CNS = system: SF-268 CNS
DU-145 prostate = system: DU-145 prostate
UO-31 renal = system: UO-31 renal
RPMI-8226 leukemia = system: RPMI-8226 leukemia
OVCAR-3 ovarian = system: OVCAR-3 ovarian
MCF7 breast = system: MCF7 breast
OVCAR-5 ovarian = system: OVCAR-5 ovarian
NCI-H522 lung = system: NCI-H522 lung
MDA-MB-231 breast = system: MDA-MB-231 breast
NCI/ADR-RES ovarian = system: NCI/ADR-RES ovarian
SN12C renal = system: SN12C renal
NCI-H23 lung = system: NCI-H23 lung
UACC-257 melanoma = system: UACC-257 melanoma
SF-295 CNS = system: SF-295 CNS
OVCAR-8 ovarian = system: OVCAR-8 ovarian
SR leukemia = system: SR leukemia
HS 578T breast = system: HS 578T breast
K-562 leukemia = system: K-562 leukemia
BT-549 breast = system: BT-549 breast
M14 melanoma = system: M14 melanoma
SK-OV-3 ovarian = system: SK-OV-3 ovarian
SK-MEL-28 melanoma = system: SK-MEL-28 melanoma
NCI-H460 lung = system: NCI-H460 lung
U251 CNS = system: U251 CNS
OVCAR-4 ovarian = system: OVCAR-4 ovarian

Measured: TGI

Cc1ccc2[nH]c3[nH]c(=S)[nH]c(=O)c3c2c1
not listed: SK-MEL-28 melanoma | NCI-H460 lung | U251 CNS | OVCAR-4 ovarian
> 100 µM: all other assays above

CN1C(=O)CC2CCC(=O)N2c2cccnc21 (stereo not given)
not listed: RXF 393 renal | A498 renal | MOLT-4 leukemia | SNB-75 CNS | HOP-92 NSCLC | OVCAR-5 ovarian | SK-OV-3 ovarian
> 100 µM: all other assays above
